From article PMC11392244, “Characterization of a unique catechol-O-methyltransferase as a molecular drug target in parasitic filarial nematodes” (PLOS Neglected Tropical Diseases, 2024)
Several values for one entry are separate records, joined by “and”; a condition that tells them apart may be missing. Identical values can stand only once. Like-named read-outs stand apart in the source and are kept apart here.

Experiments:
[1] = system: DiMT protein; format: biochemical, Dirofilaria immitis; conditions: for IC50: read-out: IC 50 (μM ± SEM)
[2] = system: D. immitis microfilariae; assay: In vitro efficacy against live D. immitis microfilariae (motility, completely immotile %); format: cell-based, Dirofilaria immitis; conditions: for Completely Immotile Microfilariae (%): single experiments; for effect on microfilariae: up to 120 h of culture
[3] = system: mammalian cells; conditions: read-out: Cytotoxicity IC50, ref Zhang et al., [30]; cited from earlier work

Compound: CO[C@@H]1/C=C\O[C@]2(C)Oc3c(C)c(O)c4c(O)c(c(CN(C)C)c(O)c4c3C2=O)NC(=O)/C(C)=C\C=C[C@@H](C)[C@@H](O)[C@H](C)[C@@H](O)[C@H](C)[C@H](OC(C)=O)[C@@H]1C [NSC145612]
- Mean Percent Inhibition ([1]; 50 µM): 68.4% and 38.5% and 36.2%
- Mean Percent Inhibition, Average ([1]; 50 µM): 47.7%
- Mean Percent Inhibition ([1]; 100 µM): 57.6% and 50.0% and 61.2%
- Mean Percent Inhibition, Average ([1]; 100 µM): 56.3%
- Mean Percent Inhibition ([1]; 150 µM): 66.2% and 62.4% and 82.9%
- Mean Percent Inhibition, Average ([1]; 150 µM): 70.5%
- Mean Percent Inhibition ([1]; 200 µM): 77.2% and 75.4% and 75.6%
- Mean Percent Inhibition, Average ([1]; 200 µM): 76.1%
- Mean Percent Inhibition ([1]; 250 µM): 84.0% and 87.6% and 81.7%
- Mean Percent Inhibition, Average ([1]; 250 µM): 84.4%
- IC50 [1]: 62.1 ± 1.8 µM
- Mean completely Immotile (%) ([2]; 25 µM, 0 h): 0%
- Mean completely Immotile (%) ([2]; 25 µM, 24 h): 4.67%
- Mean completely Immotile (%) ([2]; 25 µM, 48 h): 10.17%
- Mean completely Immotile (%) ([2]; 25 µM, 72 h): 25%
- Mean completely Immotile (%) ([2]; 25 µM, 96 h): 38.33%
- Mean completely Immotile (%) ([2]; 25 µM, 120 h): 48.67%
- Mean completely Immotile (%) ([2]; 50 µM, 0 h): 0%
- Mean completely Immotile (%) ([2]; 50 µM, 24 h): 12%
- Mean completely Immotile (%) ([2]; 50 µM, 48 h): 26.33%
- Mean completely Immotile (%) ([2]; 50 µM, 72 h): 43.33%
- Mean completely Immotile (%) ([2]; 50 µM, 96 h): 64%
- Mean completely Immotile (%) ([2]; 75 µM, 0 h): 0%
- Mean completely Immotile (%) ([2]; 75 µM, 24 h): 24.33%
- Mean completely Immotile (%) ([2]; 75 µM, 48 h): 87.33%
- Mean completely Immotile (%) ([2]; 75 µM, 72 h): 96.67%
- Mean completely Immotile (%) ([2]; 75 µM, 96 h): 100%
- Mean completely Immotile (%) ([2]; 75 µM, 120 h): 100%
- Mean completely Immotile (%) ([2]; 100 µM, 0 h): 0%
- Mean completely Immotile (%) ([2]; 100 µM, 24 h): 55.33%
- Mean completely Immotile (%) ([2]; 100 µM, 48 h): 94.33%
- Mean completely Immotile (%) ([2]; 100 µM, 72 h): 100%
- Mean completely Immotile (%) ([2]; 100 µM, 96 h): 100%
- Mean completely Immotile (%) ([2]; 100 µM, 120 h): 100%
- EC50 ([2]; 96 h post-treatment, read-out: Anti-parasitic EC50): 32.2 µM
- Completely Immotile Microfilariae (%) ([2]; 25 µM, 0 h): 0%
- Completely Immotile Microfilariae (%) ([2]; 25 µM, 24 h): 5% and 3% and 6%
- Completely Immotile Microfilariae (%) ([2]; 25 µM, 48 h): 10% and 8% and 12.5%
- Completely Immotile Microfilariae (%) ([2]; 25 µM, 72 h): 28% and 22% and 25%
- Completely Immotile Microfilariae (%) ([2]; 25 µM, 96 h): 41% and 36% and 38% and 50%
- Completely Immotile Microfilariae (%) ([2]; 25 µM, 120 h): 50% and 44% and 52%
- Completely Immotile Microfilariae (%) ([2]; 50 µM, 0 h): 0%
- Completely Immotile Microfilariae (%) ([2]; 50 µM, 24 h): 10% and 12% and 14%
- Completely Immotile Microfilariae (%) ([2]; 50 µM, 48 h): 25% and 23% and 31%
- Completely Immotile Microfilariae (%) ([2]; 50 µM, 72 h): 40% and 44% and 46%
- Completely Immotile Microfilariae (%) ([2]; 50 µM, 96 h): 60% and 64% and 68% and 100%
- Completely Immotile Microfilariae (%) ([2]; 50 µM, 120 h): 100%
- Completely Immotile Microfilariae (%) ([2]; 75 µM, 0 h): 0%
- Completely Immotile Microfilariae (%) ([2]; 75 µM, 24 h): 21% and 28% and 24%
- Completely Immotile Microfilariae (%) ([2]; 75 µM, 48 h): 85% and 90% and 87%
- Completely Immotile Microfilariae (%) ([2]; 75 µM, 72 h): 95% and 97% and 98%
- Completely Immotile Microfilariae (%) ([2]; 75 µM, 96 h): 100%
- Completely Immotile Microfilariae (%) ([2]; 75 µM, 120 h): 100%
- Completely Immotile Microfilariae (%) ([2]; 100 µM, 0 h): 0%
- Completely Immotile Microfilariae (%) ([2]; 100 µM, 24 h): 50% and 56% and 60%
- Completely Immotile Microfilariae (%) ([2]; 100 µM, 48 h): 93% and 95%
- Completely Immotile Microfilariae (%) ([2]; 100 µM, 72 h): 100%
- Completely Immotile Microfilariae (%) ([2]; 100 µM, 96 h): 100%
- Completely Immotile Microfilariae (%) ([2]; 100 µM, 120 h): 100%
- effect on microfilariae [2]: killing effect
- IC50 [3]: 302 µM

Compound: CO[C@@]12[C@H](COC(N)=O)C3=C(C(=O)C(C)=C(N)C3=O)N1C[C@H]1[C@@H]2N1C (stereo partly shown) [NSC56410]
- Mean Percent Inhibition ([1]; 50 µM): 18.0% and 26.7% and 20.5%
- Mean Percent Inhibition, Average ([1]; 50 µM): 21.7%
- Mean Percent Inhibition ([1]; 100 µM): 26.6% and 33.3% and 21.3%
- Mean Percent Inhibition, Average ([1]; 100 µM): 27.1%
- Mean Percent Inhibition ([1]; 150 µM): 31.0% and 35.0% and 25.0%
- Mean Percent Inhibition, Average ([1]; 150 µM): 30.3%
- Mean Percent Inhibition ([1]; 200 µM): 34.6% and 41.9% and 31.9%
- Mean Percent Inhibition, Average ([1]; 200 µM): 36.1%
- Mean Percent Inhibition ([1]; 250 µM): 41.2% and 38.8% and 51.8%
- Mean Percent Inhibition, Average ([1]; 250 µM): 43.9%
- Mean Percent Inhibition ([1]; 300 µM): 48.3% and 48.6% and 46.0%
- Mean Percent Inhibition, Average ([1]; 300 µM): 47.6%
- Mean Percent Inhibition ([1]; 350 µM): 53.8% and 59.3% and 53.7%
- Mean Percent Inhibition, Average ([1]; 350 µM): 55.6%
- Mean Percent Inhibition ([1]; 400 µM): 62.5% and 63.8%
- Mean Percent Inhibition, Average ([1]; 400 µM): 62.9%
- IC50 [1]: 300 ± 2.5 µM
- Mean completely Immotile (%) ([2]; 25 µM, 0 h): 0%
- Mean completely Immotile (%) ([2]; 25 µM, 24 h): 2.33%
- Mean completely Immotile (%) ([2]; 25 µM, 48 h): 7.67%
- Mean completely Immotile (%) ([2]; 25 µM, 72 h): 12.5%
- Mean completely Immotile (%) ([2]; 25 µM, 96 h): 30.5%
- Mean completely Immotile (%) ([2]; 25 µM, 120 h): 45%
- Mean completely Immotile (%) ([2]; 50 µM, 0 h): 0%
- Mean completely Immotile (%) ([2]; 50 µM, 24 h): 13%
- Mean completely Immotile (%) ([2]; 50 µM, 48 h): 21.33%
- Mean completely Immotile (%) ([2]; 50 µM, 72 h): 54.33%
- Mean completely Immotile (%) ([2]; 50 µM, 96 h): 79.33%
- Mean completely Immotile (%) ([2]; 50 µM, 120 h): 97.67%
- Mean completely Immotile (%) ([2]; 75 µM, 0 h): 0%
- Mean completely Immotile (%) ([2]; 75 µM, 24 h): 38.67%
- Mean completely Immotile (%) ([2]; 75 µM, 48 h): 59.33%
- Mean completely Immotile (%) ([2]; 75 µM, 72 h): 86%
- Mean completely Immotile (%) ([2]; 75 µM, 96 h): 98.33%
- Mean completely Immotile (%) ([2]; 75 µM, 120 h): 100%
- Mean completely Immotile (%) ([2]; 100 µM, 0 h): 0%
- Mean completely Immotile (%) ([2]; 100 µM, 24 h): 61%
- Mean completely Immotile (%) ([2]; 100 µM, 48 h): 77.67%
- Mean completely Immotile (%) ([2]; 100 µM, 72 h): 98%
- Mean completely Immotile (%) ([2]; 100 µM, 96 h): 100%
- Mean completely Immotile (%) ([2]; 100 µM, 120 h): 100%
- EC50 ([2]; Dirofilaria immitis, 96 h, read-out: Anti-parasitic EC50 (μM), 96 h post-treatment): 32.1 µM
- EC50 ([2]; read-out: Anti-parasitic EC50, 96 h post-treatment): 32.2 µM
- Completely Immotile Microfilariae (%) ([2]; 25 µM, 0 h): 0%
- Completely Immotile Microfilariae (%) ([2]; 25 µM, 24 h): 2% and 4% and 1%
- Completely Immotile Microfilariae (%) ([2]; 25 µM, 48 h): 8% and 10% and 5%
- Completely Immotile Microfilariae (%) ([2]; 25 µM, 72 h): 15% and 12.5% and 10%
- Completely Immotile Microfilariae (%) ([2]; 25 µM, 96 h): 35% and 29.5% and 27%
- Completely Immotile Microfilariae (%) ([2]; 25 µM, 120 h): 50% and 44% and 41%
- Completely Immotile Microfilariae (%) ([2]; 50 µM, 0 h): 0%
- Completely Immotile Microfilariae (%) ([2]; 50 µM, 24 h): 15% and 11.5% and 12.5%
- Completely Immotile Microfilariae (%) ([2]; 50 µM, 48 h): 23% and 21% and 20%
- Completely Immotile Microfilariae (%) ([2]; 50 µM, 72 h): 56% and 50% and 57%
- Completely Immotile Microfilariae (%) ([2]; 50 µM, 96 h): 80% and 76% and 82%
- Completely Immotile Microfilariae (%) ([2]; 50 µM, 120 h): 100% and 95% and 98%
- Completely Immotile Microfilariae (%) ([2]; 75 µM, 0 h): 0%
- Completely Immotile Microfilariae (%) ([2]; 75 µM, 24 h): 36% and 40%
- Completely Immotile Microfilariae (%) ([2]; 75 µM, 48 h): 55% and 60% and 63%
- Completely Immotile Microfilariae (%) ([2]; 75 µM, 72 h): 83% and 88% and 87%
- Completely Immotile Microfilariae (%) ([2]; 75 µM, 96 h): 100% and 95%
- Completely Immotile Microfilariae (%) ([2]; 75 µM, 120 h): 100%
- Completely Immotile Microfilariae (%) ([2]; 100 µM, 0 h): 0%
- Completely Immotile Microfilariae (%) ([2]; 100 µM, 24 h): 60% and 58% and 65%
- Completely Immotile Microfilariae (%) ([2]; 100 µM, 48 h): 75% and 78% and 80%
- Completely Immotile Microfilariae (%) ([2]; 100 µM, 72 h): 95% and 100% and 99%
- Completely Immotile Microfilariae (%) ([2]; 100 µM, 96 h): 100%
- Completely Immotile Microfilariae (%) ([2]; 100 µM, 120 h): 100%
- effect on microfilariae [2]: killing effect
- IC50 [3]: 188 µM
